ChEMBL document CHEMBL4229451, “Recent advances in peptidomimetics antagonists targeting estrogen receptor α-coactivator interaction in cancer therapy” (Bioorg Med Chem Lett, 2018)
Starred links: 1 amine or outer side, 2 acyl side, 3 side chain; linkers in the order of their positions; H or OH if unused. Positions of bridges follow the written chain, without caps; N, C: chain ends. Non-standard residues stand in square brackets, D forms with d. Residues, ends and D or L forms follow the SMILES beside them. X2 = O=C([C@@H](CC[*:3])N[*:1])[*:2]; S5 = C=CCCC[C@](C)(N)C(=O)O

How the values were obtained:
Estrogen receptor [1] = biological target: T1, Estrogen receptor (Homo sapiens, UniProt P03372); test: Binding affinity to recombinant human ERalpha LBD (301 to 553 residues) expressed in Escherichia coli BL21(DE3) using FITC-labelled compound after 1 hr by fluorescence polarization method
T1 sequence (P03372 whole entry): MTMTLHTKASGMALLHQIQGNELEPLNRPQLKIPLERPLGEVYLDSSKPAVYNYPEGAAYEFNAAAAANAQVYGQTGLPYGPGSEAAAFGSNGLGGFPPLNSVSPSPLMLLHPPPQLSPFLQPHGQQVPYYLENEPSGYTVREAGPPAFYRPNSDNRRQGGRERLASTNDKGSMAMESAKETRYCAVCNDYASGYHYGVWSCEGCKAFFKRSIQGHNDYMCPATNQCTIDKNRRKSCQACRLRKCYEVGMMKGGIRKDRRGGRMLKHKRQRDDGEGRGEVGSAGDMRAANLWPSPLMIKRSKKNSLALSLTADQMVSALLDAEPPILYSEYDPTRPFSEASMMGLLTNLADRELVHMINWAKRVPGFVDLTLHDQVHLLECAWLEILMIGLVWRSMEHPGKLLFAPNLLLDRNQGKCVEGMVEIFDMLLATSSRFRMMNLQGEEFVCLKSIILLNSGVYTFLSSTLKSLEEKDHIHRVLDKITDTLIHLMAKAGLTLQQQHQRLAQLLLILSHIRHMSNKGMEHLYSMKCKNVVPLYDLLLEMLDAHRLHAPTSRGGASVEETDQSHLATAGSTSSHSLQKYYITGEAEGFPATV

Estrogen receptor [2] = biological target: T1, Estrogen receptor; test: Antagonist activity at full length recombinant human ERalpha expressed in baculovirus expression system assessed as inhibition of estradiol-induced Euphorium-labelled LTERHKILHRLLQEGSPSD peptide recruitment after 1.5 hrs by time-resolved fluorescence assay
Estrogen receptor beta [3] = biological target: Estrogen receptor beta (Homo sapiens, UniProt Q92731); test: Antagonist activity at full length recombinant human ERbeta expressed in baculovirus expression system assessed as inhibition of estradiol-induced Euphorium-labelled QAQQKSLLQQLLTE peptide recruitment after 1.5 hrs by time-resolved fluorescence assay
Sequence of Estrogen receptor beta (Homo sapiens, UniProt Q92731) (Q92731 whole entry, the tested form may be a part): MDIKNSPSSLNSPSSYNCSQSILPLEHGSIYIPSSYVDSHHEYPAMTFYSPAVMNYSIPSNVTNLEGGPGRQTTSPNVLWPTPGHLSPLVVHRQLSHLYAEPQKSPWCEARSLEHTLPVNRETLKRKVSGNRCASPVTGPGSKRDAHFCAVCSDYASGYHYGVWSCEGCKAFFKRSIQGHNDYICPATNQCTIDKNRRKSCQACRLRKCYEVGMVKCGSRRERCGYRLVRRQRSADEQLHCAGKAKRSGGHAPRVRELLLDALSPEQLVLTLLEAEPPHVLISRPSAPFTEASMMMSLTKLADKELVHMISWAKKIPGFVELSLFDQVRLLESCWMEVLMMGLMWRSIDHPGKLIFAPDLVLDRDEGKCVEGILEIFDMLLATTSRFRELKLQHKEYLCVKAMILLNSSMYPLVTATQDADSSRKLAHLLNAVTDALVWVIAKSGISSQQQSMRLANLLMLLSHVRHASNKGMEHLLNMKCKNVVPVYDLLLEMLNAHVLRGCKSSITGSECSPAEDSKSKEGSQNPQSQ

[4] = biological target: T2, Estrogen receptor (Homo sapiens) (UniProt P03372); test: (§1) Binding affinity to recombinant human ERalpha LBD (301 to 553 residues) expressed in Escherichia coli BL21(DE3) by surface plasmon resonance method
T2 sequence (whole entry): T1 sequence (P03372 whole entry)

Estrogen receptor [5] = biological target: T1, Estrogen receptor; test: as §1
[6] = test system: Estrogen receptor beta (Homo sapiens), Q92731 [C334S,C369S,C481S]; test: (§2) Binding affinity to recombinant human ERbeta LBD (259 to 498 residues) C334S/C369S/C481S triple mutant expressed in Escherichia coli BL21(DE3) by surface plasmon resonance method
Sequence of Estrogen receptor beta (Homo sapiens), Q92731 [C334S,C369S,C481S] (Q92731 whole entry C334S/C369S/C481S, the tested form may be a part): as the sequence (Q92731 whole entry, the tested form may be a part) above, with C334S, C369S, C481S counted along it

Estrogen receptor beta [7] = biological target: Estrogen receptor beta (Homo sapiens, UniProt Q92731, C334S/C369S/C481S); test: as §2
Sequence of Estrogen receptor beta (Homo sapiens, UniProt Q92731, C334S/C369S/C481S) (Q92731 whole entry C334S/C369S/C481S, the tested form may be a part): as the sequence (Q92731 whole entry, the tested form may be a part) above, with C334S, C369S, C481S counted along it

Estrogen receptor [8] = biological target: T1, Estrogen receptor; test: Displacement of 5-iodoacetamidofluorescein-labelled SRC3 from C417-biotin labelled ERalpha (unknown origin) (304 to 554 residues) after 45 mins by TR-FRET assay
Estrogen receptor [9] = biological target: T1, Estrogen receptor; test: Binding affinity to recombinant N-terminal His6-tagged ERalpha LBD (unknown origin) (299 to 554 residues) by surface plasmon resonance method

With `CC[C@H](C)[C@@H]1NC(=O)C[C@H](NC(=O)[C@@H](N)CCCNC(=N)N)C(=O)NC[C@@H](C(=O)N[C@@H](CCCNC(=N)N)C(=O)N[C@@H](CC(C)C)C(=O)N[C@@H](CC(C)C)C(=O)N[C@@H](CCC(N)=O)C(N)=O)NC(=O)[C@H](CC(C)C)NC1=O` the Kd (Estrogen receptor [1]) was 85 nM.
For `CC[C@H](C)[C@H](NC(=O)[C@H](Cc1ccc(O)cc1)NC(=O)[C@@H]1C[C@H](O)CN1C(=O)[C@H](C)NC(=O)[C@H](CC(C)C)NC(=O)CCCCCNC(=O)[C@H](CCC(N)=O)NC(=O)[C@H](CC(C)C)NC(=O)[C@H](CC(C)C)NC(=O)[C@H](CCCNC(=N)N)NC(=O)[C@@H]1CNC(=O)[C@@H](NC(=O)[C@@H](N)CCCNC(=N)N)CC(=O)N[C@@H]([C@@H](C)CC)C(=O)N[C@@H](CC(C)C)C(=O)N1)C(N)=O`, the Kd (Estrogen receptor [1]) was 30 nM.
Work on `CC[C@H](C)[C@@H]1NC(=O)[C@H](NC(=O)[C@@H](N)CCCNC(=N)N)CSSC[C@H](C(=O)N[C@@H](CCCNC(=N)N)C(=O)N[C@@H](CC(C)(C)C)C(=O)N[C@@H](CC(C)C)C(=O)N[C@@H](CCC(N)=O)C(N)=O)NC(=O)[C@H](CC(C)C)NC1=O` yielded a Ki (Estrogen receptor [2]) of 0.07 nM and a Ki (Estrogen receptor beta [3]) of 1.2 nM.
Molecule `CC[C@H](C)[C@@H]1NC(=O)[C@H](NC(=O)[C@@H](N)CCCNC(=N)N)CCSC[C@@H](C(=O)N[C@@H](CCCNC(=N)N)C(=O)N[C@@H](CC(C)C)C(=O)N[C@@H](CC(C)C)C(=O)N[C@@H](CCC(N)=O)C(N)=O)NC(=O)[C@H](CC(C)C)NC1=O` (H-R[X2]ILCRLLQ-NH2; thioether 2-5) has a Ki (Estrogen receptor [2]) of 6.9 nM and a Ki (Estrogen receptor beta [3]) of 64 nM.
Work on `CC[C@H](C)[C@@H]1NC(=O)[C@@](C)(NC(=O)[C@H](Cc2cnc[nH]2)NC(C)=O)CCC/C=C\CCC[C@@](C)(C(=O)N[C@@H](CC(C)C)C(=O)N[C@@H](CC(C)C)C(=O)N[C@@H](CCC(N)=O)C(=O)N[C@@H](CC(=O)O)C(=O)N[C@@H](CO)C(N)=O)NC(=O)[C@H](Cc2cnc[nH]2)NC(=O)[C@H](CC(C)C)NC1=O` (Ac-H[S5]ILH[S5]LLQDS-NH2; staple (Z) 2-6) yielded a Kdiss [4] of 0.256 s⁻¹, a Kd (Estrogen receptor [5]) of 674 nM and a Kdiss [6] of 0.509 s⁻¹. It also gave a Kd (Estrogen receptor beta [7]) of 1990 nM.
`C=CCCC[C@](C)(NC(=O)[C@H](CCCCN)NC(=O)[C@H](Cc1cnc[nH]1)NC(C)=O)C(=O)N[C@@H](CC(C)C)C(=O)N[C@@H](Cc1cnc[nH]1)C(=O)N[C@@H](CCC(N)=O)C(=O)N[C@@](C)(CCCC=C)C(=O)N[C@@H](CC(C)C)C(=O)N[C@@H](CCC(N)=O)C(=O)N[C@@H](CC(=O)O)C(=O)N[C@@H](CO)C(N)=O` (Ac-HK[S5]LHQ[S5]LQDS-NH2) showed an IC50 (Estrogen receptor [8]) of 1200 nM.
`CC[C@H](C)[C@H](NC(=O)[C@H](CCCCN)NC(=O)[C@]1(C)CCC/C=C\CCC[C@](C)(NC(C)=O)C(=O)N[C@@H](CCCCN)C(=O)N[C@@H](CCC(=O)O)C(=O)N[C@@H](CCCCN)C(=O)N1)C(=O)N[C@@H](CC(C)C)C(=O)N[C@@H](Cc1cnc[nH]1)C(=O)N[C@@H](CCC(N)=O)C(=O)N[C@@H](CC(C)C)C(=O)N[C@@H](CC(C)C)C(=O)N[C@@H](CCC(N)=O)C(=O)N[C@@H](CC(=O)O)C(=O)N[C@@H](CO)C(N)=O` (Ac-[S5]KEK[S5]KILHQLLQDS-NH2; staple (Z) 1-5) gave a Kd (Estrogen receptor [5]) of 8000 nM and a Kd (Estrogen receptor beta [7]) of 8300 nM.
`CC[C@H](C)[C@@H]1NC(=O)[C@H](NC(=O)[C@@H](N)CCCCN)CSSC[C@H](C(=O)N[C@@H](CCCNC(=N)N)C(=O)N[C@@H](CC(C)C)C(=O)N[C@@H](CC(C)C)C(=O)N[C@@H](CCC(N)=O)C(N)=O)NC(=O)[C@H](CC(C)C)NC1=O` (H-K[dC]IL[dC]RLLQ-NH2; disulfide 2-5) gave a Ki (Estrogen receptor [2]) of 25 nM.
Molecule `CC(=O)N[C@@H](CCCNC(=N)N)C(=O)N[C@@H](CCCNC(=N)N)C(=O)N[C@@H](CCCNC(=N)N)C(=O)N[C@@H](CCCNC(=N)N)C(=O)N[C@@H](CCCCN)C(=O)N[C@@]1(C)CCC/C=C\CCC[C@@](C)(C(=O)N[C@@H](CC(C)C)C(=O)N[C@@H](CCC(N)=O)C(=O)N[C@@H](CC(=O)O)C(=O)N[C@@H](CO)C(N)=O)NC(=O)[C@H](CCCNC(=N)N)NC(=O)[C@H](Cc2cnc[nH]2)NC(=O)[C@H](CC(C)C)NC1=O` (Ac-RRRRK[S5]LHR[S5]LQDS-NH2; staple (Z) 6-10) has a Kd (Estrogen receptor [9]) of 19 nM.
